Like-named read-outs stand apart in the source and are kept apart here.
Assays:
Assay type in all cases: biochemical
[1] = target: E. coli ligase (D-Ala-D-Ala ligase) (Escherichia coli, UniProt P07862); assay: D-Ala-D-Ala ligase Ki determination (PK/LDH coupled assay), E. coli ligase
From the text: (§1) Inhibition of D-Ala-D-Ala ligase can be assayed for using the pyruvate kinase/lactate dehydrogenase (PK/LDH) assay described in Example 2, and as described in the literature (e.g., in Sarthy et al., Anal. Biochem., 254:288-290, 1997). In the bacterial cell wall synthesis process, the ligase catalyzes the conversion of adenosine triphosphate (ATP) to adenosine diphosphate (ADP) concurrent with the ligation of two D-alanine residues to form D-alanyl-D-alanine. PK then regenerates ATP from the ADP thus created simultaneously with the conversion of phosphopyruvate to pyruvate. LDH catalyzes the reduction of pyruvate to lactate by converting NADH to NAD^+. By monitoring the production rate of NAD^+ (e.g., using UV/Vis spectroscopy), D-Ala-D-Ala ligase activity can be ascertained.
(§2) The protein sequence for the enzyme D-ala-D-ala ligase has been determined in a variety of different bacterial species using standard techniques in biochemistry (see Table 5). The protein sequence from any species can be overexpressed in an appropriate host organism such as E. coli using standard molecular biology techniques. The ligase enzyme can be harvested, purified, and used in the above described assay for the determination of inhibitory activity.
(§3) The synthetic analogs of Example 1 were dissolved in dimethylsulfoxide (DMSO) at a concentration of 100 mM on the day of screening, using a vortex mixer and sonication if necessary for dissolution. The solutions were kept at room temperature until screening was completed.
(§4) A 10 mM NADH (Sigma) stock solution was prepared freshly on the day of screening by dissolving 32 μmol NADH in 3.2 ml double-distilled water. The NADH solution was kept on ice. Stock solutions containing 50 mM phosphoenolpyruvate (PEP; Sigma), 500 μM HERMES, 30 mM adenosine triphosphate (ATP; Sigma), 200 mM D-alanine (Sigma), and 4× core buffer (i.e., 400 mM Hepes, 40 mM magnesium chloride, and 40 mM potassium chloride), were also stored on ice. A stock solution of pyruvate kinase/lactate dehydrogenase (PK/LDH) was also obtained from Sigma.
(§5) Table of Final concentrations are dependent on the type of screening:
(§6) For each set of test compounds, two 96-well plates were used: an inhibitor plate and an enzyme plate. The test compounds correspond to rows A-G of the plates. Adenosine (Sigma) dissolved in DMSO, used as a control, corresponds to row H of each plate.
(§7) The enzyme solution was allowed to equilibrate to 25° C.
(§8) Dilutions were prepared in the inhibitor plate as follows: 50 μl DMSO was added to each well of columns 1-11, rows A-G, of the inhibitor plate. 50 μl DMSO were added to each well of columns 1-11, row H. 100 μl of the 100 mM test solutions were added to column 12, rows A-G (i.e., the first compound in row A, the second compound in row B, and so on). 100 μl of a 100 mM Adenosine solution was added to column 12, row H.
(§9) 50 μl of the test solution was transferred from column 12 in each row to column 11 of the a same row, mixing the solution with the DMSO. 50 μl of solution was then transferred from column 11 in each row to column 10 in the same row, 50 μl from column 10 was transferred to column 9, and so on, down to column 2. No solution was transferred to column 1. Multichannel pipettors were used in making the serial dilution.
(§10) 120 μl of the enzyme solution was added to each well of the enzyme plate.
(§11) The substrate solutions were brought to 25° C.
(§12) The analogs and enzymes were then incubated at 25° C. Since the reactions were initiated in columns, the analog addition is also in columns. At t=0 minutes, 5 μl analog was transferred from each well of columns 1-4 of the inhibitor plate to the corresponding well of the enzyme plate. At t=4 minutes, 5 μl analog was transferred from each well of columns 5-8 of the inhibitor plate to the corresponding well of the enzyme plate. At t=8 minutes, 5 μl analog was transferred from each well of columns 9-12 of the inhibitor plate to the corresponding well of the enzyme plate. The inhibitor plate was then frozen. […]

[2] = target: Staph ligase (D-Ala-D-Ala ligase) (Staphylococcus aureus, UniProt Q5HEB7); assay: D-Ala-D-Ala ligase Ki determination (PK/LDH coupled assay), Staph ligase
From the text: as §1, §2, §3, §4, §5, §6, §7, §8, §9, §10, §11, §12

[3] = target: H. Influenzae ligase (D-Ala-D-Ala ligase) (Haemophilus influenzae, UniProt P44405); assay: D-Ala-D-Ala ligase Ki determination (PK/LDH coupled assay), H. influenzae ligase; settings: for Ki: Ki/ATP, avg, read-out: H. Influenzae ligase Ki/ATP (uM) avg
From the text: as §1, §2, §3, §4, §5, §6, §7, §8, §9, §10, §11, §12

[4] = target: T1, Strep ligase (D-Ala-D-Ala ligase) (Streptococcus pneumoniae serotype 4, UniProt P0CB57); assay: D-Ala-D-Ala ligase Ki determination (PK/LDH coupled assay), Strep ligase; settings: for Ki: Ki/ATP, avg, read-out: Strep ligase Ki/ATP (uM) avg
T1 sequence (P0CB57 1-347): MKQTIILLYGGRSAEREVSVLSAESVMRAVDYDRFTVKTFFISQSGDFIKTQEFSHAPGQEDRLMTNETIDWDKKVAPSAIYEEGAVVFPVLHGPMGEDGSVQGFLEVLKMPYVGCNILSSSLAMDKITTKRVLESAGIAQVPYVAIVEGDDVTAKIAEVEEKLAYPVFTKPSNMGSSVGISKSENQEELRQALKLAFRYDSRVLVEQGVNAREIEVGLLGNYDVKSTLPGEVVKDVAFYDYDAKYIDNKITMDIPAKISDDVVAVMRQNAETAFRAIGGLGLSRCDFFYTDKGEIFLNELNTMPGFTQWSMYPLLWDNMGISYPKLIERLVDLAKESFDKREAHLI
From the text: as §1, §2, §3, §4, §5, §6, §7, §8, §9, §10, §11, §12

[5] = Table 1, read-out: Ki (E. coli ligase)/μM
[6] = Table 3, Ki/ATP, avg, read-out: Staph ligase Ki/ATP (uM) avg
[7] = E. coli ligase Ki/ATP (uM) avg, Table 3, Ki/ATP, avg
[8] = Table 4, Ki/ATP, avg, read-out: Staph ligase Ki/ATP (uM) avg
[9] = E. coli ligase Ki/ATP (uM) avg, Table 4, Ki/ATP, avg
[10] = Table 2, read-out: Staph ligase

Chain of H. Influenzae ligase (D-Ala-D-Ala ligase) (P44405 whole entry): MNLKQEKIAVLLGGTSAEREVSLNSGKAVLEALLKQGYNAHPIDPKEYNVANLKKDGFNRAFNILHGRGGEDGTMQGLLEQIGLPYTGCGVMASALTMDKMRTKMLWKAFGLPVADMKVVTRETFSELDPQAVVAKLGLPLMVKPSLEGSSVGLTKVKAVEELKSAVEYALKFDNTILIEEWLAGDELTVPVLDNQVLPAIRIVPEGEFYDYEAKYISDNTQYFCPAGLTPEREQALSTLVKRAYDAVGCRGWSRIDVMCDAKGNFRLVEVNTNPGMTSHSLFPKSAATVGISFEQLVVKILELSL
Chain of Staph ligase (D-Ala-D-Ala ligase) (Q5HEB7 whole entry): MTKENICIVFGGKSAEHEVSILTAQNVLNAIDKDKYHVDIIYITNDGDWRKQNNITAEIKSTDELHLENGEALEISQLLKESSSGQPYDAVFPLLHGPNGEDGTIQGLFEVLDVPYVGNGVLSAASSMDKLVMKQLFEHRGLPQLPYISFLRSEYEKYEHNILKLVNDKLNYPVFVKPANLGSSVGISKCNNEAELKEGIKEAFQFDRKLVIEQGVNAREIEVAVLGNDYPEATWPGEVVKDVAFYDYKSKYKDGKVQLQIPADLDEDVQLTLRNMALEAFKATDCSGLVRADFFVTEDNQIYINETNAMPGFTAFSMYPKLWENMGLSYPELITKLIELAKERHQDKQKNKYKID

Nc1nc(N)c2cc(NCc3ccc(C(=O)NCc4ccccn4)cc3)ccc2n1
Ki [1, 5]: 73 µM

Nc1nc(N)c2ccc(-c3ccccc3)nc2n1
Ki [1, 5]: 31 µM

CC(C)c1nc2nc(N)nc(N)c2nc1C(C)C
Ki [1, 5]: 37 µM

Nc1nc(N)c2nc(CNc3cc(Cl)cc(Cl)c3)cnc2n1
Ki [1, 5]: 1 µM

Nc1nc(N)c2ncc(CNC(CO)CSCc3ccccc3)nc2n1 (stereo not drawn)
Ki [1, 5]: 55 µM

Cc1ccc(C(C)C)cc1OCc1ncc2c(N)nc(N)nc2n1
Ki [1, 5]: 20 µM

Nc1nc(N)c2cnc(CSc3ccc(Cl)cc3)nc2n1
Ki [1, 5]: 12 µM

Nc1nc(N)c2cnc(NCc3ccc(Cl)c(Cl)c3)nc2n1
Ki [1, 5]: 20 µM

CC(Nc1ncc2c(N)nc(N)nc2n1)C(=O)Nc1ccc2ccccc2c1 (stereo not drawn)
Ki [1, 5]: 29 µM

Nc1nc(N)c2cnc(/C=C/c3ccccc3)nc2n1
Ki [1, 5]: 14 µM

Nc1nc(N)c2cnc(N[C@H]3CCCc4ccccc43)nc2n1
Ki [1, 5]: 16 µM

CN(Cc1cccc2ccccc12)c1ncc2c(N)nc(N)nc2n1
Ki [1, 5]: 3 µM

CN(CCC=C1c2ccccc2CCc2ccccc21)c1ncc2c(N)nc(N)nc2n1
Ki [1, 5]: 9 µM

Nc1nc(N)c2cnc(N[C@H]3CCN(Cc4ccccc4)C3)nc2n1
Ki [1, 5]: 13 µM

Nc1nc(N)c2cnc(N3C4CC3N4c3ccc(Cl)cc3)nc2n1
Ki [1, 5]: 12 µM

CC1C(C)N(c2ncc3c(N)nc(N)nc3n2)C(C)C(C)N1c1ncc2c(N)nc(N)nc2n1 (stereo not drawn)
Ki [1, 5]: 2 µM

Nc1nc(N)c2cnc(NCCNC(=O)c3c(Cl)cccc3Cl)nc2n1
Ki [1, 5]: 12 µM

Nc1nc(N)c2cnc(CNC(=O)/C=C/c3ccccc3)nc2n1
Ki [1, 5]: 92 µM

Nc1nc(N)c2cnc(N(CCCO)Cc3ccccc3)nc2n1
Ki [1, 5]: 14 µM

Nc1nc(N)c2cnc(N3CCC(O)(c4cccc(F)c4)CC3)nc2n1
Ki [1, 5]: 0.59 µM

Nc1nc(N)c2cnc(Nc3ccc(Cl)c(C(=O)NCc4cccs4)c3)nc2n1
Ki [1, 5]: 0.5 µM

CN(Cc1cc2ccccc2s1)c1ncc2c(N)nc(N)nc2n1
Ki [1, 5]: 2.9 µM

CN(Cc1cnc2ccccc2c1)c1ncc2c(N)nc(N)nc2n1
Ki [1, 5]: 1 µM

CC(c1cccc2ccccc12)N(CC(O)C(=O)O)c1ncc2c(N)nc(N)nc2n1 (stereo not drawn)
Ki [1, 5]: 0.5 µM

CCOc1ccc2ccccc2c1CN(CC(=O)O)c1ncc2c(N)nc(N)nc2n1
Ki [1, 5]: 8.7 µM

CCOc1ccc2ccccc2c1CN(CCC(=O)NCCN)c1ncc2c(N)nc(N)nc2n1
S. aureus ligase activity (in words) [2]: single digit micromolar | Ki [2, 6]: 4.7 µM | Ki for H. influenzae ligase (in words) [3]: less than one micromolar | Ki ([3]; Table 3): 1 µM | Ki for E. coli ligase (in words) [1]: less than one micromolar | Ki [1, 7]: 0.7 µM | S. pneumoniae ligase activity (in words) [4]: single digit micromolar | Ki ([4]; Table 3): 1.9 µM

CCOc1ccc2ccccc2c1CN(CCC(=O)NCc1ccccn1)c1ncc2c(N)nc(N)nc2n1
Ki [2, 6]: 9.5 µM | Ki ([3]; Table 3): 0.267 µM | Ki [1, 7]: 9.6 µM | Ki ([4]; Table 3): 3.1 µM

CCOc1ccc2ccccc2c1CN(CCC(=O)N1CCOCC1)c1ncc2c(N)nc(N)nc2n1
Ki [2, 6]: 3.8 µM | Ki ([3]; Table 3): 1.3 µM | Ki [1, 7]: 1.9 µM | Ki ([4]; Table 3): 4.1 µM

CCOc1ccc2ccccc2c1CN(CCC(=O)O)c1ncc2c(N)nc(N)nc2n1
Ki [2, 8]: 6.7 µM | Ki ([3]; Table 4): 3.7 µM | Ki [1, 9]: 5.3 µM | Ki ([4]; Table 4): 2.1 µM

C[C@@H](c1cccc2ccccc12)N(CCC(=O)O)c1ncc2c(N)nc(N)nc2n1
Ki [2, 8]: 10 µM | Ki ([3]; Table 4): 5.7 µM | Ki [1, 9]: 4.2 µM | Ki ([4]; Table 4): 14.6 µM

C[C@@H](c1cccc2ccccc12)N(CC(O)C(=O)O)c1ncc2c(N)nc(N)nc2n1 (stereo partly drawn)
Ki [2, 8]: 4.3 µM | Ki ([3]; Table 4): 3.5 µM | Ki [1, 9]: 1.4 µM | Ki ([4]; Table 4): 4.3 µM

C[C@@H](c1cccc2ccccc12)N(C[C@@H](O)C(=O)O)c1ncc2c(N)nc(N)nc2n1 (racemic)
Ki [2, 8]: 7.8 µM | Ki [1, 9]: 0.611 µM

C[C@H](c1ccc(F)c2ccccc12)N(C)c1ncc2c(N)nc(N)nc2n1 [CH3|CH3|R|F]
Ki [2, 10]: 27 µM | Ki ([1]; E. coli ligase (μM), Table 2): 0.104 µM

CC(c1cccc2ccccc12)N(CCCCN)c1ncc2c(N)nc(N)nc2n1 (stereo not drawn) [drawing 41]
Ki [1, 5]: 0.13 µM

CCN(c1ncc2c(N)nc(N)nc2n1)C(C)c1ccc(C)c2ccccc12 (stereo not drawn) [—CH2CH3|CH3|R/S|CH3]
Ki [2, 10]: 38.5 µM | Ki ([1]; E. coli ligase (μM), Table 2): 0.21 µM

CCN(c1ncc2c(N)nc(N)nc2n1)[C@H](C)c1ccc(C)c2ccccc12 [—CH2CH3|CH3|R|CH3]
Ki [2, 10]: 71 µM | Ki ([1]; E. coli ligase (μM), Table 2): 0.102 µM

Cc1ccc([C@@H](C)N(CC2CC2)c2ncc3c(N)nc(N)nc3n2)c2ccccc12 [—CH2CH(CH2)2|CH3|R|CH3]
Ki [2, 10]: 62 µM | Ki ([1]; E. coli ligase (μM), Table 2): 0.174 µM

CCC(c1cccc2ccccc12)N(C)c1ncc2c(N)nc(N)nc2n1 (stereo not drawn) [—CH3|C2H5|R/S|H, N7-Methyl-N-7-(1-naphthalen-1-yl-propyl)-pyrimido[4,5-d]pyrimidine-2,4,7-triamine]
Ki [2, 10]: 4.6 µM | Ki ([1]; E. coli ligase (μM), Table 2): 0.452 µM

Cc1ccc(C(C)N(C)c2ncc3c(N)nc(N)nc3n2)c2ccccc12 (stereo not drawn) [—CH3|CH3|R/S|CH3, N7-Methyl-N7-[1-(4-methyl-naphthalen-1-yl)-ethyl]-pyrimido[4,5-d]pyrimidine-2,4,7-triamine]
Ki [2, 10]: 12.3 µM | Ki ([1]; E. coli ligase (μM), Table 2): 0.277 µM

CC(c1ccc(Cl)c2ccccc12)N(C)c1ncc2c(N)nc(N)nc2n1 (stereo not drawn) [—CH3|CH3|R/S|Cl]
Ki [2, 10]: 4.9 µM | Ki ([1]; E. coli ligase (μM), Table 2): 0.201 µM

CC(c1cccc2ccccc12)N(C)c1ncc2c(N)nc(N)nc2n1 (stereo not drawn) [—CH3|CH3|R/S|H]
Ki [2, 10]: 9.28 µM | Ki ([1]; E. coli ligase (μM), Table 2): 0.718 µM

From patent US20080090847A1, “HETEROCYCLIC COMPOUNDS AND USES THEREOF AS D-ALANYL-D-ALANINE LIGASE INHIBITORS” (PLIVA D.D., priority 2001, published 2008)
